The source of these data is article PMC6321145 (Molecules, 2018).

The target in one data set is T1, Aβ1–42 (Homo sapiens, UniProt P05067).
T1 construct: Aβ1–42 (Sigma, St. Louis, MO, USA; counterion, NaOH) stock solution was prepared by dissolving Aβ1–42 peptide in ammonium hydroxide; purchased Sigma
Briefly: Inhibition of self-induced Aβ1–42 aggregation (ThT fluorescence assay). The data set is classed as biochemical. The method, then: The formation and aggregation of Aβ1–42 in the brain leads to neurotoxicity in AD. In order to evaluate the activity of our new synthetic compounds to inhibit Aβ1–42 self-induced aggregation, the thioflavin (ThT) fluorescence assay was performed.
All ThT experiments were performed according to our previously published methods. Aβ1–42 (Sigma, St. Louis, MO, USA; counterion, NaOH) stock solution was prepared by dissolving Aβ1–42 peptide in ammonium hydroxide (1% v/v), and diluting with 20 mM phosphate buffer (pH 7.4) to 100 μM. The tested compounds were firstly dissolved in DMSO at a concentration of 10 mM, and then diluted with 20 mM phosphate buffer (pH 7.4) to 40 μM.
For the inhibition of self-induced Aβ1–42 aggregation. Aβ1–42 peptide (2 μL, 50 μM, final concentration) with the tested compound (2 μL, 20 μM, final concentration) or 20 mM phosphate buffer (2 μL) was incubated in 20 mM phosphate buffer (pH 7.4) at 37 °C for 72 h. After incubation, the samples were diluted to a final volume of 36 μL with 50 mM glycine-NaOH buffer (pH 8.5) containing 5 μM Thioflavin T. Fluorescence signal was measured (excitation wavelength 450 nm, emission wavelength 485 nm, and slit widths set to 5 nm) on a monochromator-based multimode microplate reader ([…] M1000, TECAN, Hombrechtikon, Switzerland), adapted for 384-well microtiter plates. […] Each compound was examined in triplicate.

Data set [1] can be described thus: Oxygen radical absorbance capacity with fluorescein (ORAC-FL) assay. The method, then: Oxidative stress is another crucial event in AD pathogenesis. In order to determine antioxidant activities of our synthetic compounds, the oxygen radical absorbance capacity method with fluorescein (ORAC-FL) assay was performed. with Trolox (6-hydroxy-2,5,7,8-tetramethylchroman-2-carboxylic acid) as the standard, and their antioxidant activity was expressed as Trolox equivalents.
The antioxidant activities of the compounds in vitro were determined by the oxygen radical absorbance capacity fluorescein (ORAC-FL) assay. The tested compounds and (±)-6-hydroxy-2,5,7,8-tetramethylchroman-2-carboxylic acid (Trolox) were dissolved in DMSO at a concentration of 10 mM, and then diluted with 75 mM potassium phosphate buffer (pH 7.4) to 50 μM and 10 μM for use. The fluorescein (FL) stock solution (3.4 mM) was diluted with the same buffer to 136 nM. All the assays were conducted with 75 mM potassium phosphate bufffer (pH 7.4), and the final reaction mixture was 200 μL.
The mixture of compounds (or buffer) (20 μL) and fluorescein (FL, 120 μL) were incubated for 15 min at 37 °C in a black 96-well plate. Then 2,2′-azobis-(amidino-propane)-dihydrochloride (AAPH) solution (60 μL, 40 mM) was rapidly added to the reaction mixture. The fluorescence was recorded every 5 min for 240 min at 485 nm (excitation wavelength) and 535 nm (emission wavelength) (Varioskan Flash Multimode Reader, Thermo Scientific, Waltham, MA, USA), and each sample was prepared and measured for three times independently. […] The net AUC for a sample was calculated using the expression net AUC = AUCsample − AUCblank, The ORAC-FL value of each sample was calculated using the equation of net AUCsample/(AUCTrolox – AUCblank), which was expressed as Trolox equivalents.

A short description of data set [2]: Cytotoxicity on SH-SY5Y cells (MTT). The class given is cell-based, human. The settings on record: human, SH-SY5Y neuroblastoma cells; MTT, 24 h; mean ± SEM of three measurements. The method, then: The cytotoxicity of our synthesized compounds was examined in human neuroblastoma SH-SY5Y cells. The cell viability was determined by using methyl thiazolyl tetrazolium (MTT) colorimetry, the cells were treated with different concentrations of compounds (0–100 μM). The result is shown in the Supplementary Materials (Table S1).
The cytotoxicities of the compounds were evaluated using the MTT assay. SH-SY5Y cells were subcultured in 96-well plates at a seeding density of 1 × 10^4 cells per well. After 24 h, the medium was removed and treated with different concentrations of tested compounds for 24 h at 37 °C. The survival of cells was determined with MTT assay. Then 80 μL of medium and 20 μL of MTT (0.5 mg/mL, final concentration) were added to each well and incubated for another 4 h. After the removal of MTT, the formazan crystals were dissolved in DMSO. The amount of formazan was measured using a microculture plate reader at the wavelength of 570 nm. Each concentration was performed in triplicate.

A further data set concerns SH-SY5Y cells. The experiment in a line: Cellular ROS detection (DCFH-DA) in SH-SY5Y cells treated with t-BuOOH. The class given is cell-based, human. The settings on record: compound 2.5 μM; 0.1 mM t-BuOOH; compared with Trolox. The method, then: To further investigate their antioxidant activity in SH-SY5Y cells, cellular ROS detection assay based on dichlorofluorescein diacetate (DCFH-DA) was performed. with Trolox and N-acetyl-L-cysteine (NAC) as reference compounds.
SH-SY5Y cells were maintained in Dulbecco’s modified Eagle’s medium (DEME) and supplemented with 1 mM glutamine, 10% fetal calf serum, 100 U/mL penicillin, and 100 μg/mL streptomycin. The cultures were maintained at 37 °C in a humidified incubator containing 5% CO2 and were passaged twice weekly.
The antioxidant activity of the compounds in SH-SY5Y cells were tested with the fluorescent probe (2′,7′-dichlorofluorescein diacetate, DCFH-DA) as reported with some variation. SH-SY5Y cells were sub-cultured in 96-well plates at a seeding density of 1 × 10^4 cells per well for 24 h, then the medium was removed, the tested compounds (2.5 μM) was added and incubated for another 24 h at 37 °C. After that, the cells were washed with PBS and incubated with 5 μM DCFH-DA in PBS at 37 °C in 5% CO2 for 30 min. Then DCFH-DA was removed, the cells were washed three times and incubated with 0.1 mM t-BuOOH in PBS for 30 min. After the incubation, the cell fluorescence from each well was measured at 485 nm excitation and 535 nm emission with a monochromator based multimode microplate reader ([…] M1000).

Where [3] appears, read: inhibitor 20 μM, Aβ1–42 50 μM, ThT, 37 °C, 72 h, mean ± SD.

T1 sequence (P05067 672-713): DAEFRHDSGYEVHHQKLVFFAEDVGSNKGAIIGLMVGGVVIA

On Aβ1–42 (setting [3]), `CCN(CC)c1ccc(/C=C/c2cc(N3CCCCC3)c3ccccc3n2)cc1` [Compound 4b1, reference compound] registered an inhibition at 20 µM of 83.5 ± 1.4%. For the same molecule, the ORAC in data set [1] (compound 1 μM) is recorded as 3.70 ± 0.11 μmol of Trolox equivalents/μmol of tested compounds; in data set [1] (compound 5 μM), 3.91 ± 0.11 μmol of Trolox equivalents/μmol of tested compounds.

On to `CN(C)c1ccc(/C=C/c2cc(N3CCCCC3)c3ccccc3n2)cc1` [Compound 4b2, reference compound], for which, on Aβ1–42 (setting [3]), testing at 20 µM gave an inhibition of 81.2 ± 0.8%. Moreover, the ORAC is 2.91 ± 0.11 μmol of Trolox equivalents/μmol of tested compounds in data set [1] (compound 1 μM) and 3.12 ± 0.10 μmol of Trolox equivalents/μmol of tested compounds in data set [1] (compound 5 μM).

`CCN(CC)CCCNc1cc(/C=C/c2ccc(N(C)C)cc2)nc2ccccc12` [Compound 6a2, (E)-N^1-(2-(4-(Dimethylamino)styryl)quinolin-4-yl)-N^3,N^3-diethylpropane-1,3-diamine] displayed a melting point of 168.5 to 170.1 °C. At 20 µM the inhibition at Aβ1–42 (setting [3]) was 88.5 ± 1.5%. For the same molecule, in data set [1] (compound 1 μM), the ORAC is reported as 5.74 ± 0.09 μmol of Trolox equivalents/μmol of tested compounds. For the same molecule, 187.5 ± 0.2 µM corresponded to half-maximal inhibition in data set [2] (IC50 at 24 h).

Turning to `CCN(CC)CCCNc1cc(/C=C/c2c[nH]c3ccccc23)nc2ccccc12` [Compound 6a3, (E)-N^1-(2-(2-(1H-Indol-3-yl)vinyl)quinolin-4-yl)-N^3,N^3-diethylpropane-1,3-diamine], the melting point is 194.3 to 195.1 °C. On Aβ1–42 (setting [3]), the inhibition at 20 µM was 84.3 ± 2.1%. For the same molecule, the ORAC in data set [1] (compound 1 μM) is reported as 1.26 ± 0.06 μmol of Trolox equivalents/μmol of tested compounds. Further, the ORAC in data set [1] (compound 5 μM) is reported as 1.73 ±0.07 μmol of Trolox equivalents/μmol of tested compounds. The IC50 at 24 h in data set [2] is 147.8 ± 0.3 µM.

Regarding `CN(C)CCCNc1cc(/C=C/c2ccc(N(C)C)cc2)nc2ccccc12` [Compound 6b2, (E)-N^1-(2-(4-(Dimethylamino)styryl)quinolin-4-yl)-N^3,N^3-dimethylpropane-1,3-diamine], the melting point lay within 151.2 to 153.3 °C. In addition, the 50% inhibitory concentration (IC50) on Aβ1–42 (ThT fluorescence method, mean ± SD of three experiments, read-out: IC50 against self-induced Aβ1–42 aggregation) worked out at 6.1 ± 0.8 µM. Besides, the inhibition at 20 µM against Aβ1–42 (setting [3]) worked out at 92.1 ± 1.3%. Moreover, the ORAC in data set [1] (compound 1 μM) is listed as 5.61 ± 0.09 μmol of Trolox equivalents/μmol of tested compounds. Also, the ORAC in data set [1] (compound 5 μM) is 5.88 ± 0.01 μmol of Trolox equivalents/μmol of tested compounds. This molecule registered a concentration for half-maximal inhibition (IC50) at 24 h in data set [2] of 228 µM.

In the case of `CCN(CC)c1ccc(/C=C/c2cc(NCCN(C)C)c3ccccc3n2)cc1` [Compound 6c1, (E)-N^1-(2-(4-(Diethylamino)styryl)quinolin-4-yl)-N^2,N^2-dimethylethane-1,2-diamine], the melting point was in the range of 145.2 to 147.1 °C. On Aβ1–42 (setting [3]), this molecule came in with an inhibition at 20 µM of 85.1 ± 1.4%. In addition, the ORAC in data set [1] (compound 1 μM) is listed as 2.79 ± 0.04 μmol of Trolox equivalents/μmol of tested compounds. The ORAC in data set [1] (compound 5 μM) is 3.24 ± 0.10 μmol of Trolox equivalents/μmol of tested compounds. In data set [2], this molecule gave an IC50 at 24 h of 154.3 ± 0.5 µM.

Consider `CN(C)CCNc1cc(/C=C/c2ccc(N(C)C)cc2)nc2ccccc12` [Compound 6c2, (E)-N^1-(2-(4-(Dimethylamino)styryl)quinolin-4-yl)-N^2,N^2-dimethylethane-1,2-diamine], for which the melting point lay within 148.9 to 149.6 °C. The inhibition at 20 µM against Aβ1–42 (setting [3]) was 83.9 ± 2.4%. Besides, the ORAC in data set [1] (compound 1 μM) was 3.28 ± 0.09 μmol of Trolox equivalents/μmol of tested compounds. In addition, the ORAC in data set [1] (compound 5 μM) was 3.53 ± 0.07 μmol of Trolox equivalents/μmol of tested compounds. Also, the midpoint of inhibition in data set [2], the IC50 at 24 h, lay at 127.5 ± 0.4 µM.

`CCCCNc1cc(/C=C/c2ccc(N(CC)CC)cc2)nc2ccccc12` [Compound 6d1, (E)-N-Butyl-2-(4-(diethylamino)styryl)quinolin-4-amine] returned a melting point of 172.5 to 173.8 °C. Moreover, the inhibition at 20 µM against Aβ1–42 (setting [3]) amounted to 80.5 ± 1.4%. In addition, in data set [1] (compound 1 μM), the ORAC is 1.38 ± 0.02 μmol of Trolox equivalents/μmol of tested compounds. For the same molecule, in data set [1] (compound 5 μM), the ORAC was 1.56 ± 0.05 μmol of Trolox equivalents/μmol of tested compounds. Further, the IC50 at 24 h in data set [2] is 119.3 ± 0.7 µM.

`CCCCNc1cc(/C=C/c2ccc(N(C)C)cc2)nc2ccccc12` [Compound 6d2, (E)-N-Butyl-2-(4-(dimethylamino)styryl)quinolin-4-amine] yielded a melting point of 165.3 to 167.1 °C. On Aβ1–42 (setting [3]), this molecule returned an inhibition at 20 µM of 79.2 ± 2.3%. Moreover, the ORAC in data set [1] (compound 1 μM) was 0.75 ± 0.06 μmol of Trolox equivalents/μmol of tested compounds. For the same molecule, the ORAC in data set [1] (compound 5 μM) was 0.95 ± 0.09 μmol of Trolox equivalents/μmol of tested compounds. Also, in data set [2], the IC50 at 24 h amounted to 112.4 ± 0.6 µM.

Take `CCN(CC)c1ccc(/C=C/c2cc(NCC(C)C)c3ccccc3n2)cc1` [Compound 6e1, (E)-2-(4-(Diethylamino)styryl)-N-isobutylquinolin-4-amine]: the melting point lay within 170.2 to 171.7 °C. This molecule also displayed an inhibition at 20 µM at Aβ1–42 (setting [3]) of 77.9 ± 1.3%. Further, the ORAC in data set [1] (compound 1 μM) was 1.71 ± 0.05 μmol of Trolox equivalents/μmol of tested compounds. Moreover, the ORAC in data set [1] (compound 5 μM) was 1.92 ± 0.11 μmol of Trolox equivalents/μmol of tested compounds. The molecule further yielded an IC50 at 24 h in data set [2] of 143.6 ± 0.7 µM.

`CC(C)CNc1cc(/C=C/c2ccc(N(C)C)cc2)nc2ccccc12` [Compound 6e2, (E)-2-(4-(Dimethylamino)styryl)-N-isobutylquinolin-4-amine]: the melting point was 171.8 to 173.2 °C. At Aβ1–42 (setting [3]), this molecule displayed an inhibition at 20 µM of 77.5 ± 1.5%. In addition, in data set [1] (compound 1 μM), the ORAC was 1.68 ± 0.06 μmol of Trolox equivalents/μmol of tested compounds. For the same molecule, the ORAC in data set [1] (compound 5 μM) is given as 1.78 ± 0.05 μmol of Trolox equivalents/μmol of tested compounds. For the same molecule, it took 141.9 ± 0.5 µM to reach half-maximal inhibition in data set [2] (IC50 at 24 h).

Turning to `COc1cc(/C=C/C(=O)CC(=O)/C=C/c2ccc(O)c(OC)c2)ccc1O` [Cur, curcumin, reference compound], the “Aβ1–42 Aggregation Inhibition (%)” value on Aβ1–42 (setting [3]) amounted to 49.3 ± 1.2%.

Regarding `CC(=O)N[C@@H](CS)C(=O)O` [NAC, N-acetyl-L-cysteine, reference compound], in the data set with SH-SY5Y cells, the “Antioxidant activity in SH-SY5Y cells (ROS generation, DCFH-DA fluorescence)” value is on record as “didn’t remove ROS generation”.

As to `Cc1c(C)c2c(c(C)c1O)CCC(C)(C(=O)O)O2` (stereo not drawn) [Trolox, 6-hydroxy-2,5,7,8-tetramethylchroman-2-carboxylic acid, reference compound], in the data set on SH-SY5Y cells, the “Antioxidant activity in SH-SY5Y cells (ROS generation, DCFH-DA fluorescence)” value is “decrease the intensity of fluorescence”.
